Results on 25 molecules are retold here after ChEMBL document CHEMBL5042519, “Design and synthesis of marine sesterterpene analogues as novel estrogen receptor α degraders for breast cancer treatment” (Eur J Med Chem, 2022).

Series [1] concerns MCF7. Put plainly: Antiproliferative activity against human MCF7 cells assessed as reduction in cell viability after 48 hrs by MTT assay. The series is classed as functional, cell-based. The conditions noted are these: MCF7, 48 h. (Tetrazolium assays rely on reduction of a dye to a coloured formazan, in cell work by metabolically active cells.)
The test system of series [2] is MCF7. Description: Antiproliferative activity against human MCF7/ADR cells assessed as reduction in cell viability after 48 hrs by MTT assay. Conditions: MCF7, 48 h. The series is classed as functional, cell-based.
The nature of series [3]: Resistance index, ratio of IC50 for antiproliferative activity against human MCF7/ADR cells to IC50 for antiproliferative activity against human MCF7 cells. Format: functional.
The next series deals with MDA-MB-231. Put plainly: Antiproliferative activity against human MDA-MB-231 cells assessed as reduction in cell viability after 48 hrs by MTT assay. The conditions noted are these: MDA-MB-231, 48 h.
Series [4] concerns the target T1, Estrogen receptor (Homo sapiens) (UniProt P03372).
T1 sequence (whole entry): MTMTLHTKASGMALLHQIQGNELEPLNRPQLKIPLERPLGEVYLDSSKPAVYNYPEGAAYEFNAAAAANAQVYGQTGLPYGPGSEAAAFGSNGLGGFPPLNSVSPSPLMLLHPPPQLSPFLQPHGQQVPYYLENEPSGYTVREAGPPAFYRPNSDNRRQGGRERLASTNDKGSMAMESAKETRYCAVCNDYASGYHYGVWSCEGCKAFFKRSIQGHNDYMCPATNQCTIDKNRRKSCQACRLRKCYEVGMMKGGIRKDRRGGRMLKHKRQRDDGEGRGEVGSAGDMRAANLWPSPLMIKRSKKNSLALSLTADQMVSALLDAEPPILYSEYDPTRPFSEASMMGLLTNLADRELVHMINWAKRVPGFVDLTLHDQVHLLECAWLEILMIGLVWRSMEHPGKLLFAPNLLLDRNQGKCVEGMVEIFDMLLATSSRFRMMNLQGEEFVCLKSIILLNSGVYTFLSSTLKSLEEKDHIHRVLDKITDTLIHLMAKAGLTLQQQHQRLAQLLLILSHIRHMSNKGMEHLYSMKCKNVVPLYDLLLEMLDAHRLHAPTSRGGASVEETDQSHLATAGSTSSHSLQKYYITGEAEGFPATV
Put plainly: Induction of ERalpha degradation in human MCF7 cells assessed as decrease in ERalpha protein expression at 1 uM incubated for 24 hrs by Western blot analysis. Format: cell-based. A general note: Immunoblotting shows a protein as a band on a membrane.

Series [5] is described as follows: Antiproliferative activity against human MCF-10A cells assessed as reduction in cell viability after 48 hrs by MTT assay. Format: toxicity, cell-based.
Series [6] is described as follows: Selectivity index, ratio of IC50 for antiproliferative activity against human MCF-10A cells to IC50 for antiproliferative activity against human MDA-MB-231 cells by MTT assay. Format: toxicity, cell-based. The conditions noted are these: MCF-10A cells versus MDA-MB-231 cells, read-out: Ratio IC50.

Structures can show the parent of a compound that is named as a salt. Calls of active or inactive are those of the source. No cut-off for these calls is given here. A value given as a limit tells only on which side of the number the result lay.

The term IC50 denotes the concentration that gives 50% inhibition. `CCCCCOC(=O)/C=C/[C@H](C)[C@H]1CC[C@]2(C)C[C@@H]3C(C)=CC(=O)[C@H]3/C(C=O)=C\C[C@@H]12`: the IC50 with MCF7 [1] stood at 2950 nM; in the series on MCF7 [2], 1980 nM; in the series with MDA-MB-231, 2410 nM. For the same molecule, the “Ratio IC50” value in series [3] came out at 0.67.
Consider `CC1=CC(=O)[C@H]2/C(C=O)=C\C[C@H]3[C@@H]([C@@H](C)/C=C\C=C/C(=O)OCCCOC(=O)CC45CC6CC(CC(C6)C4)C5)CC[C@]3(C)C[C@H]12`, for which the 50% inhibitory concentration (IC50) in the series with MCF7 [1] was determined as 1450 nM; in the series with MCF7 [2], 960 nM; with MDA-MB-231, 440 nM. Besides, the “Ratio IC50” value in series [3] was found to be 0.66.
Consider `CC1=CC(=O)[C@H]2/C(C=O)=C\C[C@H]3[C@@H]([C@@H](C)/C=C\C=C/C(=O)OCCOCCOCCOCCOC(=O)CC45CC6CC(CC(C6)C4)C5)CC[C@]3(C)C[C@H]12`, for which the results for the IC50 in the series on MCF7 [1], with MCF7 [2] and in the series on MDA-MB-231 were 1260 nM, 2030 nM and 1010 nM, respectively. Also, the “Ratio IC50” value in series [3] worked out at 1.61. Also, in series [4], the outcome was Active.
As to `CCCCCCCCOC(=O)/C=C\C=C/[C@H](C)[C@H]1CC[C@]2(C)C[C@@H]3C(C)=CC(=O)[C@H]3/C(C=O)=C\C[C@@H]12`, the concentration for half-maximal inhibition (IC50) in the series with MCF7 [1] worked out at 1780 nM; with MCF7 [2] it was 980 nM; in the series on MDA-MB-231 it was 520 nM. Moreover, the “Ratio IC50” value in series [3] turned out to be 0.55.
The like results for `CC1=CC(=O)[C@H]2/C(C=O)=C\C[C@H]3[C@@H]([C@@H](C)/C=C/C(=O)OCCCOC(=O)CC45CC6CC(CC(C6)C4)C5)CC[C@]3(C)C[C@H]12` were, in that order, 1820 nM, 700 nM, 290 nM and 0.38.
As to `CCCCCCCCOC(=O)/C=C/[C@H](C)[C@H]1CC[C@]2(C)C[C@@H]3C(C)=CC(=O)[C@H]3/C(C=O)=C\C[C@@H]12`, the IC50 at 48 h in series [5] turned out to be 1570 nM. Besides, the IC50 came to 1420 nM in the series with MCF7 [1], 520 nM in the series with MCF7 [2] and 420 nM with MDA-MB-231. Also, the “Ratio IC50” value in series [3] was 0.37. Besides, the selectivity ratio in series [6] came to 1.11.
Turning to `CC1=CC(=O)[C@H]2/C(C=O)=C\C[C@H]3[C@@H]([C@@H](C)/C=C/C(=O)OC45CC6CC(CC(C6)C4)C5)CC[C@]3(C)C[C@H]12`, the values for the IC50 with MCF7 [1], with MCF7 [2] and in the series on MDA-MB-231 were 590 nM, 610 nM and 950 nM, respectively. For the same molecule, in series [3], the “Ratio IC50” value was 1.03. The outcome in series [4] was Active.
For the molecule `CCCCCCOC(=O)/C=C/[C@H](C)[C@H]1CC[C@]2(C)C[C@@H]3C(C)=CC(=O)[C@H]3/C(C=O)=C\C[C@@H]12`, the IC50 with MCF7 [1] turned out to be 1840 nM; in the series with MCF7 [2], 1630 nM; in the series with MDA-MB-231 it was 860 nM. The “Ratio IC50” value in series [3] is reported as 0.89.
With `CC1=CC(=O)[C@H]2/C(C=O)=C\C[C@H]3[C@@H]([C@@H](C)/C=C/C(=O)OCCOCCOCCOC(=O)CC45CC6CC(CC(C6)C4)C5)CC[C@]3(C)C[C@H]12`, the half-inhibitory concentration (IC50) with MCF7 [1] was determined as 1040 nM; in the series on MCF7 [2], 1150 nM; in the series with MDA-MB-231, 730 nM. The “Ratio IC50” value in series [3] came to 1.11. Further, the outcome in series [4] was Active.
As to `CC1=CC(=O)[C@H]2/C(C=O)=C\C[C@H]3[C@@H]([C@@H](C)/C=C/C(=O)OCCCCCCCCOC(=O)CC45CC6CC(CC(C6)C4)C5)CC[C@]3(C)C[C@H]12`, the concentration for half-maximal inhibition (IC50) in the series on MCF7 [1] worked out at 2870 nM; with MCF7 [2] it was 1910 nM; with MDA-MB-231 it was 750 nM. Moreover, the “Ratio IC50” value in series [3] came to 0.67.
For the molecule `CC1=CC(=O)[C@H]2/C(C=O)=C\C[C@H]3[C@@H]([C@@H](C)/C=C\C=C/C(=O)OCCOCCOOC(=O)CC45CC6CC(CC(C6)C4)C5)CC[C@]3(C)C[C@H]12`, the IC50 with MCF7 [1], with MCF7 [2] and in the series on MDA-MB-231 was above 10000 nM in each case.
Take `CC1=CC(=O)[C@H]2/C(C=O)=C\C[C@H]3[C@@H]([C@@H](C)/C=C\C=C/C(=O)OC45CC6CC(CC(C6)C4)C5)CC[C@]3(C)C[C@H]12`: the IC50 in the series with MCF7 [1] is 1080 nM; in the series on MCF7 [2], 1040 nM; in the series on MDA-MB-231, 1080 nM. Besides, in series [3], the “Ratio IC50” value is 0.96. Further, the outcome in series [4] was Active.
As for `CCCCCCCCCOC(=O)/C=C/[C@H](C)[C@H]1CC[C@]2(C)C[C@@H]3C(C)=CC(=O)[C@H]3/C(C=O)=C\C[C@@H]12`, the half-maximal inhibitory concentration (IC50) was 1810 nM with MCF7 [1], 730 nM with MCF7 [2] and 570 nM with MDA-MB-231. Also, the “Ratio IC50” value in series [3] is reported as 0.4.
For `CC1=CC(=O)[C@H]2/C(C=O)=C\C[C@H]3[C@@H]([C@@H](C)/C=C/C(=O)OCCOCCOC(=O)CC45CC6CC(CC(C6)C4)C5)CC[C@]3(C)C[C@H]12`, in that order: 1040 nM, 1110 nM, 770 nM and 1.07.
Consider `CC1=CC(=O)[C@H]2/C(C=O)=C\C[C@H]3[C@@H]([C@@H](C)/C=C/C(=O)OCCOCCOCCOCCOC(=O)CC45CC6CC(CC(C6)C4)C5)CC[C@]3(C)C[C@H]12`, for which the IC50 with MCF7 [1] came out at 960 nM; in the series with MCF7 [2], 860 nM; in the series on MDA-MB-231 it was 930 nM. The “Ratio IC50” value in series [3] is on record as 0.9. Also, the outcome in series [4] was Active.
Turning to `COCCOCCOCCOC(=O)/C=C\C=C/[C@H](C)[C@H]1CC[C@]2(C)C[C@@H]3C(C)=CC(=O)[C@H]3/C(C=O)=C\C[C@@H]12`, the concentration for half-maximal inhibition (IC50) came to 4850 nM with MCF7 [1], 3260 nM with MCF7 [2] and 2320 nM in the series on MDA-MB-231. Also, in series [3], the “Ratio IC50” value amounted to 0.67.
Consider `CCCCCCCOC(=O)/C=C/[C@H](C)[C@H]1CC[C@]2(C)C[C@@H]3C(C)=CC(=O)[C@H]3/C(C=O)=C\C[C@@H]12`, for which the half-maximal inhibitory concentration (IC50) in the series with MCF7 [1] amounted to 2190 nM; in the series with MCF7 [2] it was 1280 nM; with MDA-MB-231 it was 970 nM. In series [3], the “Ratio IC50” value was 0.58.
For `COCCOCCOCCOC(=O)/C=C/[C@H](C)[C@H]1CC[C@]2(C)C[C@@H]3C(C)=CC(=O)[C@H]3/C(C=O)=C\C[C@@H]12`, in that order: 3790 nM, 2260 nM, 3160 nM and 0.6.
As for `COc1cccc2c1C(=O)c1c(O)c3c(c(O)c1C2=O)C[C@@](O)(C(=O)CO)C[C@@H]3O[C@H]1C[C@H](N)[C@H](O)[C@H](C)O1` [DOXORUBICIN HYDROCHLORIDE], in series [5], the IC50 at 48 h stood at 860 nM.
On to `CCCCOC(=O)/C=C\C=C/[C@H](C)[C@H]1CC[C@]2(C)C[C@@H]3C(C)=CC(=O)[C@H]3/C(C=O)=C\C[C@@H]12`, for which the IC50 in the series on MCF7 [1] was 1450 nM; with MCF7 [2], 1860 nM; with MDA-MB-231, 1370 nM. Besides, the “Ratio IC50” value in series [3] is 1.28.
For `CCCCCCCOC(=O)/C=C\C=C/[C@H](C)[C@H]1CC[C@]2(C)C[C@@H]3C(C)=CC(=O)[C@H]3/C(C=O)=C\C[C@@H]12`, the results for the half-inhibitory concentration (IC50) in the series on MCF7 [1], with MCF7 [2] and in the series on MDA-MB-231 were 1380 nM, 940 nM and 690 nM, respectively. Further, the “Ratio IC50” value in series [3] is listed as 0.68. For the same molecule, in series [4], the outcome was Active.
With `CCCCCCCCCCOC(=O)/C=C\C=C/[C@H](C)[C@H]1CC[C@]2(C)C[C@@H]3C(C)=CC(=O)[C@H]3/C(C=O)=C\C[C@@H]12`, the IC50 with MCF7 [1] turned out to be 1850 nM; in the series on MCF7 [2], 1260 nM; in the series on MDA-MB-231, 910 nM. The “Ratio IC50” value in series [3] came out at 0.68.
For `CC1=CC(=O)[C@H]2/C(C=O)=C\C[C@H]3[C@@H]([C@@H](C)/C=C\C=C/C(=O)OCCCCCCCCOC(=O)CC45CC6CC(CC(C6)C4)C5)CC[C@]3(C)C[C@H]12`, in that order: 1760 nM, 1490 nM, 690 nM and 0.85.
`CCCCCOC(=O)/C=C\C=C/[C@H](C)[C@H]1CC[C@]2(C)C[C@@H]3C(C)=CC(=O)[C@H]3/C(C=O)=C\C[C@@H]12`: the results for the IC50 with MCF7 [1], in the series with MCF7 [2] and with MDA-MB-231 were 1840 nM, 1370 nM and 1660 nM, respectively. In series [3], the “Ratio IC50” value turned out to be 0.74.
For `CCCCOC(=O)/C=C/[C@H](C)[C@H]1CC[C@]2(C)C[C@@H]3C(C)=CC(=O)[C@H]3/C(C=O)=C\C[C@@H]12`, the IC50 in the series with MCF7 [1] was determined as 2250 nM; in the series on MCF7 [2] it was 1690 nM; with MDA-MB-231, 1470 nM. Moreover, the “Ratio IC50” value in series [3] is reported as 0.75.
